Measured values taken from PubChem BioAssay AID180 (DTP/NCI, 2004).
Where “and” joins values, the source holds several entries; their conditions need not be identical. Equal values may be shown once.

Test system: BDF1 mice, Adenocarcinoma 755 s.c., tumor weight T/C
Assay: NCI In Vivo Anticancer Drug Screen. Data for tumor model Adenocarcinoma 755 (subcutaneous) in B6D2F1 (BDF1) mice
Conditions: endpoint: mean tumor weight, schedule: Q01DX011 (ip), higher = larger tumour
Summary of the method: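 Compound activity was tested in mice carrying transplanted tumors. Survival or tumor size was measured, and each value is the treated-group measurement divided by that of the vehicle-treated control group (T/C).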

[1] = dose: 1.0 mg/kg/injection, vehicle: carboxymethylcellulose (CMC)
[2] = dose: 7.5 mg/kg/injection, vehicle: carboxymethylcellulose (CMC)
[3] = dose: 25.0 mg/kg/injection, vehicle: methylcellulose (MC)
[4] = dose: 75.0 mg/kg/injection, vehicle: methylcellulose (MC)
[5] = dose: 13.5 mg/kg/injection, vehicle: methylcellulose (MC)
[6] = dose: 30.0 mg/kg/injection, vehicle: carboxymethylcellulose (CMC)

CC(=O)OCC1OC(n2cnc3c(=S)nc(N)[nH]c32)C(OC(C)=O)C1OC(C)=O (configuration not stated)
T/C (dose: 0.1 mg/kg/injection, vehicle: carboxymethylcellulose (CMC)): 86 % of control | T/C (dose: 0.2 mg/kg/injection, vehicle: carboxymethylcellulose (CMC)): 77 % of control | T/C (dose: 0.5 mg/kg/injection, vehicle: carboxymethylcellulose (CMC)): 69 % of control | T/C [1]: 11 % of control and 35 % of control | T/C (dose: 1.5 mg/kg/injection, vehicle: other): 26 % of control | T/C (dose: 3.0 mg/kg/injection, vehicle: other): 3 % of control

Nc1ncnc2[nH]ncc12
T/C (dose: 0.94 mg/kg/injection, vehicle: carboxymethylcellulose (CMC)): 78 % of control | T/C (dose: 1.1 mg/kg/injection, vehicle: carboxymethylcellulose (CMC)): 69 % of control | T/C (dose: 1.41 mg/kg/injection, vehicle: carboxymethylcellulose (CMC)): 73 % of control | T/C (dose: 1.5 mg/kg/injection, vehicle: carboxymethylcellulose (CMC)): 67 % of control | T/C (dose: 1.88 mg/kg/injection, vehicle: carboxymethylcellulose (CMC)): 54 % of control and 61 % of control | T/C (dose: 2.5 mg/kg/injection, vehicle: carboxymethylcellulose (CMC)): 32 % of control | T/C (dose: 3.1 mg/kg/injection, vehicle: carboxymethylcellulose (CMC)): 74 % of control | T/C (dose: 3.75 mg/kg/injection, vehicle: carboxymethylcellulose (CMC)): 31 % of control and 36 % of control | T/C (dose: 4.52 mg/kg/injection, vehicle: carboxymethylcellulose (CMC)): 108 % of control | T/C (dose: 5.65 mg/kg/injection, vehicle: carboxymethylcellulose (CMC)): 50 % of control and 63 % of control | T/C (dose: 6.2 mg/kg/injection, vehicle: carboxymethylcellulose (CMC)): 6 % of control | T/C [2]: 5 % of control and 6 % of control | T/C (dose: 7.53 mg/kg/injection, vehicle: carboxymethylcellulose (CMC)): 36 % of control | T/C (dose: 11.3 mg/kg/injection, vehicle: carboxymethylcellulose (CMC)): 31 % of control

NNC(=O)CCC(N)C(=O)O (configuration not stated)
T/C (dose: 10.21 mg/kg/injection, vehicle: carboxymethylcellulose (CMC)): 121 % of control | T/C (dose: 13.0 mg/kg/injection, vehicle: carboxymethylcellulose (CMC)): 91 % of control | T/C (dose: 20.42 mg/kg/injection, vehicle: carboxymethylcellulose (CMC)): 96 % of control | T/C (dose: 26.0 mg/kg/injection, vehicle: carboxymethylcellulose (CMC)): 60 % of control | T/C (dose: 40.85 mg/kg/injection, vehicle: carboxymethylcellulose (CMC)): 151 % of control | T/C (dose: 43.05 mg/kg/injection, vehicle: carboxymethylcellulose (CMC)): 97 % of control | T/C (dose: 52.0 mg/kg/injection, vehicle: carboxymethylcellulose (CMC)): 70 % of control | T/C (dose: 81.7 mg/kg/injection, vehicle: carboxymethylcellulose (CMC)): 67 % of control | T/C (dose: 86.1 mg/kg/injection, vehicle: carboxymethylcellulose (CMC)): 98 % of control | T/C (dose: 104.0 mg/kg/injection, vehicle: carboxymethylcellulose (CMC)): 56 % of control

Cn1cnc2nc[nH]c2c1=S
T/C [3]: 64 % of control | T/C [4]: 75 % of control

CCCOP(=S)(N1CC1)N1CC1
T/C (dose: 3.3 mg/kg/injection, vehicle: methylcellulose (MC)): 74 % of control | T/C (dose: 6.8 mg/kg/injection, vehicle: methylcellulose (MC)): 77 % of control | T/C [5]: 40 % of control

CC(C)n1cc2c(N)ncnc2n1
T/C (dose: 12.5 mg/kg/injection, vehicle: methylcellulose (MC)): 55 % of control | T/C (dose: 12.5 mg/kg/injection, vehicle: saline): 74 % of control | T/C [3]: 18 % of control | T/C (dose: 25.0 mg/kg/injection, vehicle: saline): 14 % of control

S=C(N=Nc1ccccc1)NNc1ccccc1
T/C (dose: 50.0 mg/kg/injection, vehicle: carboxymethylcellulose (CMC)): 113 % of control | T/C (dose: 75.0 mg/kg/injection, vehicle: carboxymethylcellulose (CMC)): 152 % of control

O=C(O)c1cc2ccccc2c2cccc([N+](=O)[O-])c12
T/C (dose: 1.75 mg/kg/injection, vehicle: carboxymethylcellulose (CMC)): 63 % of control | T/C (dose: 3.5 mg/kg/injection, vehicle: carboxymethylcellulose (CMC)): 89 % of control | T/C (dose: 7.0 mg/kg/injection, vehicle: carboxymethylcellulose (CMC)): 59 % of control

O=c1[nH]c2cnc(Cl)nc2[nH]1
T/C [6]: 116 % of control | T/C (dose: 60.0 mg/kg/injection, vehicle: carboxymethylcellulose (CMC)): 85 % of control | T/C (dose: 120.0 mg/kg/injection, vehicle: carboxymethylcellulose (CMC)): 168 % of control

Nc1nc(SCc2ccc([N+](=O)[O-])cc2)c2ncn(C3OC(CO)C(O)C3O)c2n1 (configuration not stated)
T/C (dose: 18.75 mg/kg/injection, vehicle: methylcellulose (MC)): 23 % of control | T/C (dose: 37.5 mg/kg/injection, vehicle: methylcellulose (MC)): 20 % of control | T/C [4]: 8 % of control

OCCn1cnc2c(=S)nc[nH]c21
T/C [3]: 38 % of control | T/C [4]: 74 % of control | T/C (dose: 225.0 mg/kg/injection, vehicle: methylcellulose (MC)): 34 % of control

S=P(N1CCCCCC1)(N1CC1)N1CC1
T/C [1]: 92 % of control | T/C (dose: 1.75 mg/kg/injection, vehicle: saline): 58 % of control | T/C (dose: 2.0 mg/kg/injection, vehicle: carboxymethylcellulose (CMC)): 90 % of control | T/C (dose: 3.13 mg/kg/injection, vehicle: saline): 68 % of control | T/C (dose: 3.5 mg/kg/injection, vehicle: saline): 70 % of control | T/C (dose: 4.0 mg/kg/injection, vehicle: carboxymethylcellulose (CMC)): 38 % of control | T/C (dose: 6.25 mg/kg/injection, vehicle: saline): 26 % of control and 50 % of control | T/C (dose: 6.75 mg/kg/injection, vehicle: methylcellulose (MC)): 36 % of control | T/C (dose: 7.0 mg/kg/injection, vehicle: saline): 42 % of control | T/C [2]: 96 % of control | T/C (dose: 8.0 mg/kg/injection, vehicle: carboxymethylcellulose (CMC)): 23 % of control | T/C [5]: 33 % of control | T/C (dose: 13.5 mg/kg/injection, vehicle: saline): 29 % of control | T/C (dose: 14.0 mg/kg/injection, vehicle: saline): 5 % of control | T/C (dose: 15.0 mg/kg/injection, vehicle: carboxymethylcellulose (CMC)): 43 % of control | T/C (dose: 16.0 mg/kg/injection, vehicle: carboxymethylcellulose (CMC)): 6 % of control | T/C (dose: 27.0 mg/kg/injection, vehicle: saline): 25 % of control | T/C [6]: 10 % of control | T/C (dose: 54.0 mg/kg/injection, vehicle: saline): 24 % of control
